According to US20100160442A1, “FORMULATIONS FOR CANCER TREATMENT” (priority 2006, published 2010):
≈ marks a conversion by molar mass, not a printed value.

What was measured:
[1] = Equilibrium solubility of 4-iodo-3-nitrobenzamide, overnight at 25° C., measured by HPLC; assay type: physicochemical; details: for solubility: 25 °C, thermodynamic from solid
Procedure: Excess 4-iodo-3-nitrobenzamide (“BA”) was equilibrated overnight (>16 hr) at 25° C. in purified water, 0.01M HCl (pH2), 0.01M NaOH ([…]), and 0.9% NaCl. Following dilution, the solubility of the drug was measured by HPLC.
Excess 4-iodo-3-nitrobenzamide was equilibrated overnight (>16 hr) at 25° C. in solutions of purified water containing various concentrations of cyclodextrins including hydroxypropyl-β-cyclodextrin (Kleptose® from Roquette) (HPBCD), sulfobutyl ether-β-cyclodextrin (Captisol® from Cyclex) (SBEBCD), and Hyroxypropyl-γ-cyclodextrin (Cavamax W8® from Wacker) (HPGCD). Following dilution, the solubility of the drug was measured by HPLC.
Excess 4-iodo-3-nitrobenzamide was equilibrated overnight (>16 hr) at 25° C. in purified water containing various concentrations of the surfactants: polyethylene sorbitan monooleate (Polysorbate 80), polyoxyethylene sorbitan monolaurate (Polysorbate 20), Cremophor EL (BASF), Cremophor RH40 (BASF), Poloxamer 118, and Solutol HS-15 (BASF). Following dilution, the solubility of the drug was measured by HPLC.
Excess 4-iodo-3-nitrobenzamide was equilibrated overnight (>16 hr) at 25° C. in solutions of purified water containing various co-solvents including ethanol, glycofurol, glycerin formal, benzyl alcohol, N,N, dimethylacetamide (DMA), polyethylene glycol (PEG) 400, and propylene glycol. Following dilution, the solubility of the drug was measured by HPLC.
Excess 4-iodo-3-nitrobenzamide was equilibrated overnight (>16 hr) at 25° C. in solutions in purified water containing mixtures of solubilizers. Following dilution, the solubility of the drug was measured by HPLC.

[2] = Saturated solubility of BA in solvents, 25° C., absorbance at 320 nm; assay type: physicochemical; details: thermodynamic from solid

Structure (SMILES): NC(=O)c1ccc(I)c([N+](=O)[O-])c1 [BA, 4-iodo-3-nitrobenzamide]
- solubility ([1]; 100% ethanol, organic solvent or mixture, Ethanol 100%, 25° C., read-out: Solubility): 14.1 mg/mL (≈ 48.1 mM)
- solubility ([1]; 100% glycerin formal, organic solvent or mixture, Glycerin Formal 100%, 25° C., read-out: Solubility): 15.1 mg/mL (≈ 51.8 mM)
- solubility ([1]; 100% glycofurol, organic solvent or mixture, Glycofurol 100%, 25° C., read-out: Solubility): 15 mg/mL (≈ 51.3 mM)
- Enhancement ([1]; Benzyl alcohol 100%): 85.3
- Enhancement ([1]; Cremophor EL 10%): 19.2
- Enhancement ([1]; Cremophor RH40 10%): 18.5
- Enhancement ([1]; DMA 5%): 7.6
- Enhancement ([1]; DMA 100%): 392.6
- Enhancement ([1]; Ethanol 50%): 31.4
- Enhancement ([1]; Ethanol 100%): 77.2
- Enhancement ([1]; Glycerin Formal 50%): 19.0
- Enhancement ([1]; Glycerin Formal 100%): 83.2
- Enhancement ([1]; Glycofurol 50%): 54.1
- Enhancement ([1]; Glycofurol 100%): 82.3
- Enhancement ([1]; HPBCD 10%, vs no solubilizer): 26.7
- Enhancement ([1]; HPBCD 20%, vs no solubilizer): 54.8
- Enhancement ([1]; HPBCD 25%, vs no solubilizer): 63.0
- Enhancement ([1]; HPBCD 40%, vs no solubilizer): 70.2
- Enhancement ([1]; HPGCD 25%, vs no solubilizer): 1.5
- Enhancement ([1]; PEG 400 50%): 42.1
- Enhancement ([1]; Poloxamer 118 10%): 2.4
- Enhancement ([1]; Polysorbate 20 10%): 20.1
- Enhancement ([1]; Polysorbate 20 100%): 59.6
- Enhancement ([1]; Polysorbate 80 10%): 17.2
- Enhancement ([1]; Polysorbate 80 100%): 92.8
- Enhancement ([1]; Propylene glycol 50%): 12.3
- Enhancement ([1]; SBEBCD 25%, vs no solubilizer): 60.6
- Enhancement ([1]; Solubilizer None 0%): 1.0
- Enhancement ([1]; Solutol HS 15 25%): 36.0
- Enhancement ([1]; Solutol HS 15 30%): 41.0
- solubility ([1]; purified water containing mixtures of solubilizers, aqueous with cosolvent or surfactant or cyclodextrin, 5% Polysorbate 80/10% EtOH/40% PEG 400, 25° C., read-out: Solubility): 1.23 mg/mL (≈ 4.21 mM)
- solubility ([1]; purified water containing mixtures of solubilizers, aqueous with cosolvent or surfactant or cyclodextrin, 10% EtOH/10% Polysorbate 80, 25° C., read-out: Solubility): 2.3 mg/mL (≈ 7.88 mM)
- solubility ([1]; purified water containing mixtures of solubilizers, aqueous with cosolvent or surfactant or cyclodextrin, 10% EtOH/40% PEG 400, 25° C., read-out: Solubility): 3.42 mg/mL (≈ 11.7 mM)
- solubility ([1]; purified water containing mixtures of solubilizers, aqueous with cosolvent or surfactant or cyclodextrin, 10% EtOH/40% PEG 400,/5% Benzyl Alcohol, 25° C., read-out: Solubility): 3.11 mg/mL (≈ 10.7 mM)
- solubility ([1]; purified water containing mixtures of solubilizers, aqueous with cosolvent or surfactant or cyclodextrin, 10% glycofurol, 40% PEG 400, 25° C., read-out: Solubility): 6.12 mg/mL (≈ 21 mM)
- solubility ([1]; purified water, water, Purified Water, 25° C., read-out: Solubility): 0.182 mg/mL (≈ 0.623 mM)
- solubility ([1]; water without solubilizer, water, water, no solubilizer, summary of Table 1, read-out: Solubility in water without any solubilizer): ≤ 0.2 mg/mL
- solubility ([2]; 35% v/v DMA in Capmul PG-8, 25 °C, oil or lipid, 35% v/v DMA in Capmul PG-8, read from the graph of FIG. 2, read-out: Saturated solubility): ~220 mg/mL (≈ 753 mM)
- solubility ([2]; solvent (liquid filled capsule vehicle), 25 °C, oil or lipid, 10% v/v DMA in Capmul, 25° C., read-out: BA Solubility): 57 mg/mL (≈ 195 mM)
- solubility ([2]; solvent (liquid filled capsule vehicle), 25 °C, oil or lipid, 20% v/v DMA in Capmul, 25° C., read-out: BA Solubility): 89 mg/mL (≈ 305 mM)
- solubility ([2]; solvent (liquid filled capsule vehicle), 25 °C, oil or lipid, 30% v/v DMA in Capmul, 25° C., read-out: BA Solubility): 176 mg/mL (≈ 603 mM)
- solubility ([2]; solvent (liquid filled capsule vehicle), 25 °C, oil or lipid, 40% DMA in Capmul, 25° C., read-out: BA Solubility): 276 mg/mL (≈ 945 mM)
- solubility ([2]; solvent (liquid filled capsule vehicle), 25 °C, oil or lipid, 40% v/v Transcutol in Capmul, 25° C., read-out: BA Solubility): 73 mg/mL (≈ 250 mM)
- solubility ([2]; solvent (liquid filled capsule vehicle), 25 °C, oil or lipid, 100% Capmul, 25° C., read-out: BA Solubility): 32 mg/mL (≈ 110 mM)
- solubility ([2]; solvent (liquid filled capsule vehicle), 25 °C, oil or lipid, 100% Labrafil, 25° C., read-out: BA Solubility): 18 mg/mL (≈ 61.6 mM)
- solubility ([2]; solvent (liquid filled capsule vehicle), 25 °C, organic solvent or mixture, 20% v/v glycerol, 3% v/v water in PEG 400, 25° C., read-out: BA Solubility): 192 mg/mL (≈ 657 mM)
- solubility ([2]; solvent (liquid filled capsule vehicle), 25 °C, organic solvent or mixture, 25% w/v Solutol in PEG 400, 25° C., read-out: BA Solubility): 224 mg/mL (≈ 767 mM)
- solubility ([2]; solvent (liquid filled capsule vehicle), 25 °C, organic solvent or mixture, 25% w/v Vit E TPGS in PEG 400, 25° C., read-out: BA Solubility): 204 mg/mL (≈ 699 mM)
- solubility ([2]; solvent (liquid filled capsule vehicle), 25 °C, organic solvent or mixture, 100% NMP, 25° C., read-out: BA Solubility): 319 mg/mL (≈ 1090 mM)
- solubility ([2]; solvent (liquid filled capsule vehicle), 25 °C, organic solvent or mixture, 100% PEG 400, 25° C., read-out: BA Solubility): 186 mg/mL (≈ 637 mM)
- solubility ([2]; solvent (liquid filled capsule vehicle), 25 °C, organic solvent or mixture, 100% Transcutol, 25° C., read-out: BA Solubility): 192 mg/mL (≈ 657 mM)
